ChEMBL document CHEMBL1132548, “Exploring the structure-activity relationships of [1-(4-tert-butyl-3'-hydroxy)benzhydryl-4-benzylpiperazine] (SL-3111), a high-affinity and selective delta-opioid receptor nonpeptide agonist ligand” (J Med Chem, 1999)
Values belong to the compound of their own block, whether it stands above or below them.

Legend:
Mu-type opioid receptor [1] = molecular target: Mu-type opioid receptor (Rattus norvegicus, UniProt P33535); assay: In vitro inhibition of [3H]DAMGO (Tyr-D-Ala-Gly-(Me)-Phe-Gly-ol) binding to Opioid receptor mu 1 using rat brain membranes; type: cell membranes, Membrane
[2] = molecular target: T1, Delta-type opioid receptor (Rattus norvegicus, UniProt P33533); assay: In vitro inhibition of [3H]- [p-Cl-Phe4]DPDPE binding to Opioid receptor delta 1 using rat brain membranes.; type: cell membranes, Membrane
Mu-type opioid receptor [3] = molecular target: Mu-type opioid receptor (Mus musculus, UniProt P42866); assay: Agonist activity using electrically induced smooth muscle contraction of mouse vas deferens.; type: functional
[4] = molecular target: T1, Delta-type opioid receptor; assay: In vitro inhibition of [3H]deltorphin binding to Opioid receptor delta 1 using rat brain membranes.; type: cell membranes, Membrane
Mu-type opioid receptor [5] = molecular target: Mu-type opioid receptor (Cavia porcellus, UniProt P97266); assay: Agonist activity using strips of guinea pig ileum longitudinal muscle myenteric plexus.; type: functional, tissue-based
[6] = molecular target: Mu-type opioid receptor (Mus musculus) (UniProt P42866); settings: Vas deferens; 1 uM
[7] = molecular target: Mu-type opioid receptor (Homo sapiens) (UniProt P35372); assay: Agonist activity using strips of guinea pig ileum longitudinal muscle myenteric plexus at 30 uM; type: functional, tissue-based
[8] = molecular target: Mu-type opioid receptor (Homo sapiens) (UniProt P35372); settings: guinea pig; Ileum; at 10 µM
[9] = molecular target: Mu-type opioid receptor (Cavia porcellus) (UniProt P97266); assay: Agonist activity using strips of guinea pig ileum longitudinal muscle myenteric plexus at 10 uM; type: functional, tissue-based
[10] = molecular target: Mu-type opioid receptor (Mus musculus) (UniProt P42866); assay: Agonist activity using electrically induced smooth muscle contraction of mouse vas deferens at 30 uM; type: functional, tissue-based

T1 sequence (P33533 whole entry): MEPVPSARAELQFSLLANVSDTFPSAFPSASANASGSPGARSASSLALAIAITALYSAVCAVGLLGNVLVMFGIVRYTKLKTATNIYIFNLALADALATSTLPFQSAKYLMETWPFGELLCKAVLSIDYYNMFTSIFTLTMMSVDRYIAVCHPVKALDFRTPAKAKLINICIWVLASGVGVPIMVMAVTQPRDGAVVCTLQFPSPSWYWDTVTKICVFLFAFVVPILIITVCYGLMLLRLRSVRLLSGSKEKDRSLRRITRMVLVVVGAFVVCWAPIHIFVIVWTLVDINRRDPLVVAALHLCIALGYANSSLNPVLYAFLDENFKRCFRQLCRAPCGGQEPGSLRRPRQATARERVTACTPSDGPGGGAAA
Sequence of Mu-type opioid receptor (Mus musculus, UniProt P42866) (P42866 whole entry): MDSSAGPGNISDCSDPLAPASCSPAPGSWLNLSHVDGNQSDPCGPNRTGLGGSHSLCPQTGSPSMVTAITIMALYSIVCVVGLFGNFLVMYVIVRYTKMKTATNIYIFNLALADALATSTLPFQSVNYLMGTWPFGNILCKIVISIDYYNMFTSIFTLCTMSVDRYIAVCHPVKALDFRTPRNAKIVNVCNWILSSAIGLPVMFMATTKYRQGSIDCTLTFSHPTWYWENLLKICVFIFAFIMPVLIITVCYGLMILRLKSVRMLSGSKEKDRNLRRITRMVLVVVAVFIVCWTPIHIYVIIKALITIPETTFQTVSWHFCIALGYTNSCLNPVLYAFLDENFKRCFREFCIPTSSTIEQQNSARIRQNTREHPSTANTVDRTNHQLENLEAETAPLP
Sequence of Mu-type opioid receptor (Rattus norvegicus, UniProt P33535) (P33535 whole entry): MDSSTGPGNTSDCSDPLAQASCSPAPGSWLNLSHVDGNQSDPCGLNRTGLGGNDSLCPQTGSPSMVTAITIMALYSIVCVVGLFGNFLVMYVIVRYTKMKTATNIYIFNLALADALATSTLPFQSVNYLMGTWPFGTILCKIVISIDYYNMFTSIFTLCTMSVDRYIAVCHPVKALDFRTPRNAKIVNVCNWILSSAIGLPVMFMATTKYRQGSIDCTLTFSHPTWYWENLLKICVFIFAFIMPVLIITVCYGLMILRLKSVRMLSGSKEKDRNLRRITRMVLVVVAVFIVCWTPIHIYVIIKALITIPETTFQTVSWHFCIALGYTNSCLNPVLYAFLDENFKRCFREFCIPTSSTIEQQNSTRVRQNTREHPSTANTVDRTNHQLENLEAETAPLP
Sequence of Mu-type opioid receptor (Homo sapiens) (P35372 whole entry): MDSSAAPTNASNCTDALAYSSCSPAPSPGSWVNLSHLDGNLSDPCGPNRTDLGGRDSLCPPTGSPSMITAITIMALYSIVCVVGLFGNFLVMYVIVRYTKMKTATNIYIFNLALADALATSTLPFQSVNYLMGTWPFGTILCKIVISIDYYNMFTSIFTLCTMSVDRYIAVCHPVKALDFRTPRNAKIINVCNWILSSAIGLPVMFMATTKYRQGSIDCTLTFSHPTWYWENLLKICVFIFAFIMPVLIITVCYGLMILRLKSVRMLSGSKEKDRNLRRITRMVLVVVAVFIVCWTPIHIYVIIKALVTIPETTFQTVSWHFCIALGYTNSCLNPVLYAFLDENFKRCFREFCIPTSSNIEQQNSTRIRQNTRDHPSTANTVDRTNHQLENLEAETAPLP
Sequence of Mu-type opioid receptor (Mus musculus) (P42866 whole entry): as the sequence (P42866 whole entry) above
Sequence of Mu-type opioid receptor (Cavia porcellus, UniProt P97266) (P97266 whole entry): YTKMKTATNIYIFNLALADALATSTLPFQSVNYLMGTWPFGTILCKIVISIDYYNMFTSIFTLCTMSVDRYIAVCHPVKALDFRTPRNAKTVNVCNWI
Sequence of Mu-type opioid receptor (Cavia porcellus) (P97266 whole entry): as above

- IC50 (Mu-type opioid receptor [1]): 38.3 µM
- IC50 [2]: 44.7 µM
Compound: O=C(OCc1ccc(O)cc1)N1CSC(=S)N(Cc2ccccc2)C1

Compound: CC(C)(C)c1ccc(C(c2cccc(O)c2)C2CCN(Cc3ccccc3)CC2)cc1 (stereo not drawn)
- IC50 (Mu-type opioid receptor [3]): 0.39 µM
- IC50 (Mu-type opioid receptor [1]): 4.3 µM
- IC50 [4]: 0.033 µM
- IC50 (Mu-type opioid receptor [5]): 15.6 µM

Compound: CC(C)(C)c1ccc(C(c2cccc(O)c2)N2CCN(Cc3ccccc3)C[C@@H]2Cc2ccccc2)cc1 (stereo in doubt; 15c1) [listing 1 of 2 here]
- inhibition [6]: 10%
- inhibition [7]: 0%

Compound: CC(C)(C)c1ccc(C(c2cccc(O)c2)N2CCN(Cc3ccccc3)C[C@@H]2Cc2ccccc2)cc1 (stereo in doubt; 15c2)
- IC50 (Mu-type opioid receptor [1]): 46.3 µM
- IC50 [4]: 21.3 µM

Compound: CC(C)(C)c1ccc(C(c2cccc(O)c2)N2CCC(Cc3ccccc3)CC2)cc1 (stereo not drawn)
- IC50 (Mu-type opioid receptor [1]): 22.9 µM
- IC50 [4]: 12.6 µM

Compound: CC(C)(C)c1ccc(C(c2cccc(O)c2)N2CCN(Cc3ccccc3)C[C@@H]2CO)cc1 (stereo partly drawn)
- IC50 (Mu-type opioid receptor [3]): 2.26 µM
- IC50 (Mu-type opioid receptor [1]): 7.98 µM
- IC50 [4]: 0.038 µM
- inhibition [8]: 36%

Compound: CC(C)(C)c1ccc(C(c2cccc(O)c2)N2CCN(Cc3ccccc3)C[C@@H]2COCc2ccccc2)cc1 (stereo partly drawn)
- inhibition [9]: 0%
- inhibition [10]: 44%
- IC50 (Mu-type opioid receptor [1]): 26 µM
- IC50 [4]: 0.038 µM

Compound: S=C1SCN(Cc2ccccc2)CN1Cc1ccccc1 [SULBENTINE]
- IC50 (Mu-type opioid receptor [1]): 27.9 µM
- IC50 [2]: 28.6 µM

Compound: CC(C)(C)c1ccc(C(c2cccc(O)c2)N2CCN(Cc3ccccc3)C[C@@H]2Cc2ccccc2)cc1 (stereo in doubt; 15c1) [listing 2 of 2 here]
- IC50 (Mu-type opioid receptor [1]): > 80 µM
- IC50 [4]: > 10 µM

Compound: C[C@H]1CN(Cc2ccccc2)CCN1C(c1ccc(C(C)(C)C)cc1)c1cccc(O)c1 (stereo partly drawn)
- IC50 (Mu-type opioid receptor [3]): 0.29 µM
- IC50 (Mu-type opioid receptor [1]): 3.3 µM
- IC50 [4]: 0.011 µM
- inhibition [7]: 0%
